According to US20120178786A9, “Use of tetramic acid derivatives for controlling pests by drenching, drip application, or dip application” (priority 2006, published 2012):

Tests used:
Assay type in all cases: in vivo
[1] = test system: Tetranychus urticae (TETRUR); experiment: Example 5: drench of gardenia plants, Henderson-Tilton efficacy against nymphs; conditions: 240 SC
Method: Gardenia plants cv. “Cape jasmine” in 6-inch pots which had been infected with Tetranychus urticae (TETRUR) two weeks before the beginning of the experiment are drenched, in three replications, with in each case 100 ml of active substance solution containing the active substance I-4 (cis isomer, formulation: 240 SC) and, by way of comparison, with the commercial standard imidacloprid (240 SC) at the application rate stated. The greenhouse temperature is 25-30° C. The test is evaluated 3, 15 and 22 days after the treatment by determining the activity against nymphs on the leaves with the aid of the Henderson-Tilton method.

Coccus viridis = experiment: Example 11: drench of gardenia plants, Henderson-Tilton efficacy against nymphs; conditions: 240 SC
Method: Gardenia plants cv. […] The greenhouse temperature is 27° C. The test is evaluated 7, 15, 21 and 35 days after the treatment by determining the activity against nymphs on the leaves with the aid of the Henderson-Tilton method.

[2] = test system: Bemisia argentifolii (BEMIAR); experiment: Example 8: drench of tropical sage plants, Henderson-Tilton efficacy against nymphs; conditions: 12 mg active substance/1 potting compost, 240 SC
Method: Tropical sage plants cv. “scarlet sage” (approximate height 29 cm) in 6-inch pots and infested with Bemisia argentifolii (BEMIAR) are drenched, in three replications, with an active substance solution containing the active substance I-4 (cis isomer, formulation: 240 SC) and, by way of comparison, with the commercial standard imidacloprid (240 SC) at the application rate stated. The greenhouse temperature is 27-33° C. The test is evaluated 9, 13, 20, 34 and 41 days after the treatment by determining the activity against nymphs on the leaves with the aid of the Henderson-Tilton method.

Bemisia sp. = experiment: Example 15: drench of bell pepper plots, kill rate of larvae on the leaves
Method: Plots approximately 2×5 m in size which contain bell pepper plants are treated, in three replications, against Bemisia sp. The active substance example (I-4) cis isomer (240 SC) is drenched in an active substance solution at the application rate stated. The water application rate is 700 l/ha. Three treatments are carried out at intervals of 7 and 14 days. The test is evaluated in each case 7, 14, 21 and 28 days after the 3rd treatment by scoring the kill rate of the larvae on the leaves.

[3] = test system: Trialeurodes vaporarium (TRIAVA); experiment: Example 10: drip application to tomato plants on rock wool, Abbott efficacy; conditions: three treatments
Method: In each case 12 tomato plants cv. “Briljant” on rock wool are treated, in four replications, with a drip application against Trialeurodes vaporarium (TRIAVA) with an active substance solution containing the active substance I-4 (cis isomer, formulation: 100 OD) in comparison with the commercial standard imidacloprid (70 WG) at the application rate stated. The greenhouse temperature is 20° C. Three treatments are carried out at intervals of seven and fourteen days. The test is evaluated 14, 21, 28, 36 and 43 days after the 1st treatment by determining the efficacy with the aid of Abbott's formula.

Thrips palmi = experiment: Example 7: drench of cucumber plots, Abbott efficacy; conditions: 20 mg active substance/plant, two applications at 10-day interval, I-4 240 SC, imidacloprid 100 SL
Method: Plots approximately 5 m^2 in size and containing cucumber plants are drenched, in three replications, against Thrips palmi with an active substance solution containing the active substance I-4 (cis isomer, formulation: 240 SC) and, by way of comparison, with the standard imidacloprid (100 SL) at the application rate stated, corresponding to an approximate water application rate of 300 l/ha. Two applications are effected at a 10-day interval. The test is evaluated in each case 9 days after the first treatment and 7 and 13 days after the second treatment by determining the efficacy with the aid of Abbott's formula.

Aphis craccivora = experiment: Example 3: drench of violet plants, Henderson-Tilton efficacy against nymphs; conditions: 12 mg active substance/1 potting compost, 240 SC
Method: Violet plants cv. “Ladies delight” (approximate height 15 cm) in 4-inch pots which had been infected with Aphis craccivora two weeks before the treatment are drenched, in four replications, with an active substance solution containing the active substance I-4 (cis isomer, formulation: 240 SC) and, by way of comparison, with the commercial standard imidacloprid (240 SC) at the application rate stated. The greenhouse temperature is 27-33° C. The test is evaluated 7, 14, 22 and 35 days after the treatment by determining the activity against nymphs on the leaves with the aid of the Henderson-Tilton method.

[4] = test system: Madeira mealybug (Phenacoccus madeirensis); experiment: Example 13: drench of Coleus plants, Abbott efficacy; conditions: 12 mg active substance/1 potting compost, 240 SC
Method: Coleus plants (approximate height 29 cm) in 6-inch pots which have been infected approximately 4 weeks before the beginning of the experiment with Madeira mealybug (Phenacoccus madeirensis) are drenched, in three replications, with an active substance solution containing the active substance I-4 (cis isomer, formulation: 240 SC) and, by way of comparison, with the commercial standard imidacloprid (240 SC) at the application rate stated. The greenhouse temperature is 29° C. The test is evaluated 7, 14, 21 and 28 days after the treatment by determining the efficacy with the aid of Abbott's formula.

SMILES | Henderson-Tilton efficacy (%) against Bemisia argentifolii ([2]; 9 d after treatment) [%] | Henderson-Tilton efficacy (%) against Bemisia argentifolii ([2]; 13 d after treatment) [%] | Henderson-Tilton efficacy (%) against Bemisia argentifolii ([2]; 20 d after treatment) [%] | Henderson-Tilton efficacy (%) against Bemisia argentifolii ([2]; 34 d after treatment) [%] | Henderson-Tilton efficacy (%) against Bemisia argentifolii ([2]; 41 d after treatment) [%] | Abbott efficacy (%) against THRIPL (Thrips palmi; 7 d after 2nd treatm.) [%] | Abbott efficacy (%) against THRIPL (Thrips palmi; 9 d after 1st treatm.) [%] | Abbott efficacy (%) against THRIPL (Thrips palmi; 13 d after 2nd treatm.) [%] | Henderson-Tilton efficacy (%) against Aphis craccivora (Aphis craccivora; 7 d after treatment) [%] | Henderson-Tilton efficacy (%) against Aphis craccivora (Aphis craccivora; 14 d after treatment) [%] | Henderson-Tilton efficacy (%) against Aphis craccivora (Aphis craccivora; 22 d after treatment) [%] | Henderson-Tilton efficacy (%) against Aphis craccivora (Aphis craccivora; 35 d after treatment) [%] | Abbott efficacy (%) against Phenacoccus madeirensis ([4]; 7 d after treatment) [%] | Abbott efficacy (%) against Phenacoccus madeirensis ([4]; 14 d after treatment) [%] | Abbott efficacy (%) against Phenacoccus madeirensis ([4]; 21 d after treatment) [%] | Abbott efficacy (%) against Phenacoccus madeirensis ([4]; 28 d after treatment) [%] | further results
CCOC(=O)OC1=C(c2cc(C)ccc2C)C(=O)N[C@]12CC[C@@H](OC)CC2 [Example I-4] | 99 | 100 | 98 | 100 | 100 | 64.1 | 66.3 | 80.0 | 100 | 84 | 100 | 100 | 84 | 89 | 99 | 98 | Henderson-Tilton efficacy (%) against TETRUR ([1]; 3 d after treatment, 77 mg active substance/1 potting compost): 39.0%; Henderson-Tilton efficacy (%) against TETRUR ([1]; 15 d after treatment, 77 mg active substance/1 potting compost): 89.1%; Henderson-Tilton efficacy (%) against TETRUR ([1]; 22 d after treatment, 77 mg active substance/1 potting compost): 100%; Henderson-Tilton efficacy (%) against Coccus viridis (Coccus viridis; 7 d after treatment, 24 mg active substance/1 potting compost): 35%; Henderson-Tilton efficacy (%) against Coccus viridis (Coccus viridis; 15 d after treatment, 24 mg active substance/1 potting compost): 45%; Henderson-Tilton efficacy (%) against Coccus viridis (Coccus viridis; 21 d after treatment, 24 mg active substance/1 potting compost): 69%; Henderson-Tilton efficacy (%) against Coccus viridis (Coccus viridis; 35 d after treatment, 24 mg active substance/1 potting compost): 100%; Efficacy (% Abbott) against Bemisia sp. (Bemisia sp.; 7 d after 3rd treatm., 40 + 5 + 5 mg/plant, 240 SC): 86.2 % Abbott; Efficacy (% Abbott) against Bemisia sp. (Bemisia sp.; 14 d after 3rd treatm., 40 + 5 + 5 mg/plant, 240 SC): 94.4 % Abbott; Efficacy (% Abbott) against Bemisia sp. (Bemisia sp.; 21 d after 3rd treatm., 40 + 5 + 5 mg/plant, 240 SC): 94.9 % Abbott; Efficacy (% Abbott) against Bemisia sp. (Bemisia sp.; 28 d after 3rd treatm., 40 + 5 + 5 mg/plant, 240 SC): 90.5 % Abbott; Abbott efficacy (%) against TRIAVA ([3]; 14 d after 1st treatment, 20 mg active substance/plant, 100 OD): 26.8%; Abbott efficacy (%) against TRIAVA ([3]; 21 d after 1st treatment, 20 mg active substance/plant, 100 OD): 66.3%; Abbott efficacy (%) against TRIAVA ([3]; 28 d after 1st treatment, 20 mg active substance/plant, 100 OD): 90.4%; Abbott efficacy (%) against TRIAVA ([3]; 36 d after 1st treatment, 20 mg active substance/plant, 100 OD): 95.6%; Abbott efficacy (%) against TRIAVA ([3]; 43 d after 1st treatment, 20 mg active substance/plant, 100 OD): 97.9%
O=[N+]([O-])NC1=NCCN1Cc1ccc(Cl)nc1 [Imidacloprid, imidacloprid, reference compound] | 94 | 100 | 95 | 94 | 100 | 68.8 | 73.7 | 44.0 | 100 | 94 | 100 | 100 | 92 | 83 | 30 | 44 | Henderson-Tilton efficacy (%) against TETRUR ([1]; 3 d after treatment, 38.4 mg active substance/1 potting compost): 72.7%; Henderson-Tilton efficacy (%) against TETRUR ([1]; 15 d after treatment, 38.4 mg active substance/1 potting compost): 82.2%; Henderson-Tilton efficacy (%) against TETRUR ([1]; 22 d after treatment, 38.4 mg active substance/1 potting compost): 0%; Henderson-Tilton efficacy (%) against Coccus viridis (Coccus viridis; 7 d after treatment, 12 mg active substance/1 potting compost): 45%; Henderson-Tilton efficacy (%) against Coccus viridis (Coccus viridis; 15 d after treatment, 12 mg active substance/1 potting compost): 55%; Henderson-Tilton efficacy (%) against Coccus viridis (Coccus viridis; 21 d after treatment, 12 mg active substance/1 potting compost): 66%; Henderson-Tilton efficacy (%) against Coccus viridis (Coccus viridis; 35 d after treatment, 12 mg active substance/1 potting compost): 100%; Efficacy (% Abbott) against Bemisia sp. (Bemisia sp.; 7 d after 3rd treatm., 10.5 mg/plant): 96.6 % Abbott; Efficacy (% Abbott) against Bemisia sp. (Bemisia sp.; 14 d after 3rd treatm., 10.5 mg/plant): 80.6 % Abbott; Efficacy (% Abbott) against Bemisia sp. (Bemisia sp.; 21 d after 3rd treatm., 10.5 mg/plant): 84.6 % Abbott; Efficacy (% Abbott) against Bemisia sp. (Bemisia sp.; 28 d after 3rd treatm., 10.5 mg/plant): 85.7 % Abbott; Abbott efficacy (%) against TRIAVA ([3]; 14 d after 1st treatment, 9.8 mg active substance/plant, 70 WG): 28.4%; Abbott efficacy (%) against TRIAVA ([3]; 21 d after 1st treatment, 9.8 mg active substance/plant, 70 WG): 55.3%; Abbott efficacy (%) against TRIAVA ([3]; 28 d after 1st treatment, 9.8 mg active substance/plant, 70 WG): 89.1%; Abbott efficacy (%) against TRIAVA ([3]; 36 d after 1st treatment, 9.8 mg active substance/plant, 70 WG): 92.0%; Abbott efficacy (%) against TRIAVA ([3]; 43 d after 1st treatment, 9.8 mg active substance/plant, 70 WG): 89.8%
